The values that follow come from patent US7964599B2, “Therapeutic compounds” (Allergan, Inc., priority 2008, dated 2011).

Common to all, as to assay type: in vivo
One experiment has as its system normotensive dogs. Briefly: Intraocular pressure reduction in normotensive dogs. Conditions: change from baseline. The method, then:
(§1) Compounds such as those described in the above are tested in vivo to measure its ability to reduce intraocular pressure. Compound 1 is tested in normotensive dogs.

The test system of experiment [1] is laser-induced hypertensive monkeys. Description: Intraocular pressure reduction in laser-induced hypertensive monkeys. The following applies: change from baseline. The method, then: [The source words this procedure for another organism and reports this organism under the same test.] as §1
Experiment [2] has as its system lashes and adjacent hairs of patients. Description: Eyelash/hair growth observed in glaucoma patients treated in one eye. Conditions: glaucoma patient treated in only one eye. The text has this:
In the course of treating patients having glaucoma, treatment may only be appropriate in one eye. […] The lash appearance on the lids of the treated eyes would have appeared quite attractive if it represented a bilateral phenomenon. As a result of its asymmetric nature, the long lashes on one side could be construed as disturbing from a cosmetic standpoint. A systemic examination was preformed as a result of the asymmetric phenomenon. It soon became apparent that this altered appearance was not an isolated finding. […] Definite differences could be identified to varying degrees in the lashes and adjacent hairs of all patients who were taking the drug on a unilateral basis for longer than 6 months.
The changes in the lashes were apparent on gross inspection in several patients once attention was focused on the issue. In those with light colored hair and lashes, the differences were only seen easily with the aid of the high magnification and lighting capabilities of the slit lamp biomicroscope. In the course of glaucoma follow-up examination, attention is generally immediately focused on the eye itself. As a result of the high power magnification needed only one eye is seen at a time and the eye is seen at a high enough power that the lashes are not in focus. […]

On to “(Z)-7-[(1R,2S,3R,5R)-5-Chloro-2-(4-hexanoyl-phenyl)-3-hydroxy-cyclopentyl]-hept-5-enoic acid methyl ester [Compound 2]”, for which the “intraocular pressure (IOP)” value with normotensive dogs is “decreases from baseline”. Moreover, in experiment [1], the IOP result was “decreases from baseline”. In the case of `CCNC(=O)CCC/C=C\C[C@@H]1[C@@H](/C=C/[C@@H](O)CCc2ccccc2)[C@H](O)C[C@@H]1O` [bimatoprost], the “lash appearance in treated eye versus non-treated eye” value in experiment [2] was “longer, thicker, and fuller”. For “(Z)-7-[(1R,2S,3R,5R)-5-Chloro-2-(4-hexanoyl-phenyl)-3-hydroxy-cyclopentyl]-hept-5-enoic acid [Compound 3]”, in the experiment on normotensive dogs, the “intraocular pressure (IOP)” value is “decreases from baseline”. Further, the IOP result in experiment [1] is “decreases from baseline”. As to `CCCCCC(O)c1ccc([C@H]2C(=O)C[C@@H](Cl)[C@@H]2C/C=C\CCCC(=O)OCCN2CCOCC2)cc1` (stereo partly drawn) [Compound 6], the “intraocular pressure (IOP)” value in the experiment with normotensive dogs is “decreases from baseline”. Also, the IOP entry in experiment [1] was “decreases from baseline”. Regarding `CCCCCC(=O)c1ccc([C@H]2C(=O)C[C@@H](Cl)[C@@H]2C/C=C\CCCC(=O)OCCN2CCOCC2)cc1` [Compound 5], the “intraocular pressure (IOP)” value with normotensive dogs was “decreases from baseline”. Besides, the IOP entry in experiment [1] is on record as “decreases from baseline”.

`CCCCCC(O)c1ccc([C@H]2C(O)C[C@@H](Cl)[C@@H]2C/C=C\CCCC(=O)OCCN2CCOCC2)cc1` (stereo partly drawn) [Compound 7]: in the experiment on normotensive dogs, the “intraocular pressure (IOP)” value is “decreases from baseline”. Also, in experiment [1], the IOP entry is “decreases from baseline”. With `CCCCCC(=O)c1ccc([C@H]2C(O)C[C@@H](Cl)[C@@H]2C/C=C\CCCC(=O)OCCN2CCOCC2)cc1` (stereo partly drawn) [Compound 8], the “intraocular pressure (IOP)” value with normotensive dogs is on record as “decreases from baseline”. Moreover, the IOP entry in experiment [1] was “decreases from baseline”.

Turning to “(Z)-7-{(1R,2S,3R,5R)-5-Chloro-3-hydroxy-2-[4-(1-hydroxy-hexyl)-phenyl]-cyclopentyl}-hept-5-enoic acid methyl ester [Compound 1]”, the “intraocular pressure (IOP)” value in the experiment with normotensive dogs is reported as “decreases from baseline”. In addition, the IOP entry in experiment [1] is reported as “decreases from baseline”.
